For series [1], the system named is lysosomes of U-2-OS cells. The experiment in a line: Lysosomal integrity upon photo-oxidation (acridine orange and blue light). Conditions: for protection of lysosomes against photo-oxidation (lysosomal integrity): U-2-OS cells, recombinant protein 300 nM, 24 h. It counts as cell-based, human. The method, then:
Sub-confluent U-2-OS cells incubated with 2 μg/ml acridine orange for 15 min at 37° C. were washed, irradiated and analyzed in Hanks balanced salt solution complemented with 3% FCS. Cells for single cell imaging were selected from 8 pre-defined areas of each well in transmitted light-mode after which the same cells were immediately visualized and exposed to blue light from USH102 100 W mercury arc burner (Ushio electric) installed in a U-ULS100HG housing (Olympus) for 20 sec. Fluorescence microscopy was performed on Olympus IX-70 inverted microscope with a LCPlanF1×20 objective with NA=0.40. Loss of lysosomal pH gradient was quantified by counting the loss of intense red staining.
(§1) Assays for lysosomal integrity. Sub-confluent cells incubated with 2 μg/ml acridine orange for 15 min at 37° C. were washed, irradiated and analyzed in Hanks balanced salt solution complemented with 3% fetal calf serum. Cells for single cell imaging were selected from 8 pre-defined areas of each well in transmitted light-mode after which the same cells were immediately visualized and exposed to blue light from USH102 100 W mercury arc burner (Ushio electric) installed in a U-ULS100HG housing (Olympus) for 20 sec. Fluorescence microscopy was performed on Olympus IX-70 inverted microscope with a LCPlanF1×20 objective with NA=0.40. Loss of lysosomal pH gradient was quantified by counting the loss of intense red staining. A more elaborate method for assaying lysosomal integrity was developed to handle the larger lysosomal compartment of the various fibroblasts used in this study. Cells for single cell imaging were selected from 8 pre-defined areas of each well in transmitted light-mode after which the same cells were immediately and continuously exposed to 489 nm light from a 100 mW diode laser while laser scanning micrographs where captured every 330 ms on a Zeiss LSM LIVE DUO confocal system in two channels defined by bandpass filters for 495-555 nm (green) and LP650 nm (Red) light. The resulting timelapse movies where subsequently analysed by the integrated Zeiss LSM DUO software. The total and cytoplasmic (digitonin-extracted) cathepsin activities were measured in digitonin-treated samples using zFR-AFC (Enzyme System Products) probe as described in the art.

A further series concerns HSPs, including Hsp70. Conditions: cited from earlier work.
Series [2] relates to lysosomes of NPDA patient fibroblasts. In words: Lysosomal stability of NPDA fibroblasts (photo-oxidation, live single-cell imaging). It counts as cell-based, human. Conditions: NPDA Götz cells, 40 mM. The method, then: as §1
Another series concerns NPDA fibroblasts. The experiment in a line: Lysosomal area of confocal cross sections, NPDA fibroblasts. It counts as cell-based, human. Conditions: for pathology measured by lysosomal cross-sectional area: NPDA Götz cells, 40 mM. From the text: Immunodetection and microscopy. Primary antibodies used included mouse monoclonal antibodies against Hsp70 (2H9; kindly provided by Boris Margulis, Russian Academy of Sciences, St. Petersburg, Russia), glyceraldehyde-3-phosphate dehydrogenase (GAPDH; Biogenesis), BMP (6C4), lysosomal integral membrane protein-1 (H5C6; developed by J. Thomas August and James E. K. Hildreth and obtained from the Developmental Studies Hybridoma Bank developed under the auspices of the NICHD and maintained by The University of Iowa, Department of Biological Sciences, Iowa City, USA). Proteins separated by 10% SDS-PAGE and transferred to a nitrocellulose membrane were detected by using indicated primary antibodies, appropriate peroxidase-conjugated secondary antibodies from Dako, ECL Western blotting reagents (Amersham), and Luminescent Image Reader (LAS-1000Plus, Fujifilm). For immunocytochemistry Alexa […] or Alexa Fluor®-488-conjugated secondary antibodies were used. Lysotracker Red® was used for live visualization of the lysosomal compartment. Fluorescence images were taken using a Zeiss Axiovert 100M laser scanning microscope. Lysotracker quantification and timelapse movies for lysosomal integrity were done on a Zeiss LSM LIVE DUO system.

A further series relates to Hsp70. The experiment in a line: Hsp70 protein expression by western blotting in NPDA cells. The settings on record: NPDA Götz cells, 0, 20, 30, 35, 40, 45 mM. It counts as cell-based, human. Here is the method:
It is shown in Examples 2 and 3 that Hsp70 has a lysosome stabilizing effect via an interaction with BMP. In order to evaluate if this effect is also observed when exposing cells to a chemical Hsp70 inducer, Niemann-Pick Type A (NPDA) patient fibroblasts were treated with the small molecule Hsp70 inducer; Benzyl Alcohol (BA). First, NPDA cells were treated with increasing doses of BA (0, 20, 30, 35, 40, 45 mM), lysed, and analysed by western blotting. The same amount of protein was loaded in each well. […] Next, the stability of NPDA Götz lysosomes after treatment with 40 mM BA was evaluated, using the same methods as described in Example 2. […] Finally, the lysosomal cross-sectional area in NPDA Götz cells after treatment with 40 mM BA was evaluated, using the same methods as described in Example 2.
Background: Immunoblotting shows a protein as a band on a membrane.

For series [3], the system named is U-2-OS osteosarcoma cells. The experiment in a line: Cisplatin-induced apoptosis-like cell death (Hoechst 33342). It counts as cell-based, human. The settings on record: for protection of cells against cisplatin-induced lysosomal cell death: recombinant protein 300 nM 24 h, 25 μM cisplatin 24 h. Here is the method:
Apoptosis-like cell death was assessed by staining the cells with 0.05 μg/ml Hoechst 33342 (Molecular Probes) and counting cells with condensed nuclei in an inverted Olympus IX-70 fluorescent Microscope (Filter U-MWU 330-385 nm). For each experiment a minimum of eight randomly chosen areas were counted.
Assays for cell viability. Cell density was assessed by the 3-(4,5-dimethylthiazole-2-y)-2,5-[…] (MTT, SIGMA-Aldrich) reduction assay essentially as described in the art. Apoptosis-like cell death was assessed by staining the cells with 0.05 μg/ml Hoechst 33342 (Molecular Probes) and counting cells with condensed nuclei in an inverted Olympus IX-70 fluorescent Microscope (Filter U-MWU 330-385 nm). For each experiment a minimum of eight randomly chosen areas were counted.

The subject of the next series is BMP. The experiment in a line: BIAcore surface plasmon resonance with immobilized BMP-containing LUVs. It counts as binding. The settings on record: pH 4.5, L1 sensor chip. Here is the method: (§2) For preparation of LUVs a lipid mixture consisting of 10 mol % sphingomyelin, 50 mol % phosphatidylcholine, 20 mol % cholesterol and 20 mol % BMP dissolved in organic solvents, was dried under a stream of argon and rehydrated in Tris/HCl buffer (pH 7.4) (Kolzer et al., 2004). The mixture was freeze-thawed nine times in liquid nitrogen and then in an incubator at 37° C. After ultrasound bath for 15 min the mixture was passed 21 times through a polycarbonate membrane with a pore diameter of 100 nm. Surface plasmon resonance measurements were performed using a BIAcore 2000 system at 25° C. LUVs (total lipid concentration 0.1 mM) were immobilized on the surface of a L1 sensor chip (BIAcore) in PBS (loading buffer). The running buffer used was sodium acetate buffer (50 mM, pH 4.5). As a control, acid sphingomyelinase (0.2 μM, 60 μl in running buffer) was injected directly on the liposome surface. Response units between 4100 RU-5250RU were obtained. The protein of interest was injected in running buffer at a flow rate of 20 μl/min at the concentrations indicated. After injection a dissociation phase of 10 min was appended.
as §2, with “Surface Plasmon Resonance (BIAcore). For” for “For”, “7.4).” for “7.4) (Kolzer et al., 2004).”, “The protein of interest was injected in running buffer at a flow rate of 20 μl/min at the concentrations indicated. After injection a dissociation phase of 10 min was appended.” left out

In another series the test system is POPC/BMP liposomes. In words: Tryptophan fluorescence shift upon docking into POPC/BMP liposomes. Conditions: pH 6.0. It counts as binding. Here is the method: The tryptophan fluorescence spectra (RFI) and liposome 900 light scattering (RSI) were analyzed in a HEPES buffer (20 mM HEPES, 0.1 mM EDTA, pH 7.4 or 6.0 as indicated) employing LUVs consisting of indicated lipids essentially as described previously. For the RFI, LUVs were added in 10 μM aliquots and spectra recorded after a 20 min stabilization period. For the RSI, recombinant proteins were added in 0.12 nmol aliquots.
Tryptophan fluorescence spectra and liposome 90° light scattering. The tryptophan fluorescence spectra (RFI) and liposome 900 light scattering (RSI) were analyzed in a HEPES buffer (20 mM HEPES, 0.1 mM EDTA, pH 7.4 or 6.0 as indicated) employing LUVs consisting of indicated lipids essentially as described in the art. For the RFI, LUVs were added in 10 μM aliquots and spectra recorded after a 20 min stabilization period. For the RSI, recombinant proteins were added in 0.12 nmol aliquots.

Series [4] in a line: Folding and chaperone function of rHsp70 mutant (circular dichroism, luciferase folding, ATP hydrolysis). It counts as biochemical. Background: Circular dichroism is widely used to follow secondary structure.

“Also recorded” adds a separate entry of the source.

On to “5′-GCCAUGACGAAAGACAACAAUCUGU-3′ (other strand not given here) [Hsp70 siRNA, siRNA targeting the two genes encoding Hsp70, reference compound]”, for which, in [1] (U-2-OS cells, siRNA 48 h; listed as siRNA) specific for Hsp70), the “sensitization of lysosomes to photo-oxidation by siRNA” value is “sensitized lysosomes of U-2-OS cells to photo-oxidation; also recorded: sensitized the lysosomes to photo-oxidation”.

In the case of `[O-][n+]1cccc(/C(Cl)=N/OC[C@H](O)CN2CCCCC2)c1` [Arimoclomol], the “induction or co-induction of HSPs / heat shock response” value in the series with HSPs, including Hsp70 was “interacts with and amplifies the heat shock response”.

Consider `[O-][n+]1cccc(C(Cl)=NOC[C@H](O)CN2CCCCC2)c1` [BRX-345], for which, in the series with HSPs, including Hsp70, the “induction or co-induction of HSPs / heat shock response” value was “somewhat lesser ability to induce HSPs”.

Turning to `OCc1ccccc1` [Benzyl Alcohol], the stability of lysosomes result is “Increased stability of NPDA Götz lysosomes” in series [2] and “increased lysosomal stability” in [2] (listed as BA). Besides, the “pathology measured by lysosomal cross-sectional area” value is on record as “Decreased pathology” in the series on NPDA fibroblasts and “decreased pathology” in the series on NPDA fibroblasts (listed as BA). The values for the Hsp70 protein expression result with Hsp70 and in the series on Hsp70 (listed as BA) were “Induction of Hsp70 in NPDA Götz by Benzyl alcohol in a dose-dependent manner” and “induced Hsp70 expression in a dose-dependent manner”, respectively.

As for `O=C(O)/C=C\C(=O)O.OC(CON=C(Cl)c1cccnc1)CN1CCCCC1` (centres unmarked) [Bimoclomol, [2-hydroxy-3-(1-piperidinyl)propoxy]-3-pyridine-carboximidoyl-chloride maleate], the “induction or co-induction of HSPs / heat shock response” value with HSPs, including Hsp70 is listed as “capability of Hsp70 co-induction in the absence of unfolded proteins”.

For `N.N.[Cl][Pt][Cl]` [cisplatin, reference compound], the lysosomal membrane permeabilization entry in [3] (U-2-OS cells) is given as “induces an early lysosomal membrane permeabilization”.

In the case of “Hsc70: recombinant Hsc70, 86% amino acid sequence homology with Hsp70”, the “protection of lysosomes against photo-oxidation (lysosomal integrity)” value (“protection of lysosomes” below) in series [1] was “no protection; also recorded: no lysosomal stabilization”.

With “Hsp70-2: recombinant Hsp70-2, 84% amino acid sequence homology with Hsp70”, in series [1], the “protection of lysosomes” value was “no protection; also recorded: no lysosomal stabilization”.

On to “rHsp70-W90F: rHsp70 point mutant, tryptophan 90 substituted with phenylalanine”, for which the “protection of lysosomes” value in series [1] was “completely lost its ability to protect the lysosomal membranes against photo-oxidation”. The “lysosomal area / volume of the lysosomal compartment” value with NPDA fibroblasts (NPDA fibroblasts, 24 h, 300 nM rHsp70 or W90F, 150 nM rASM or combination) is reported as “effect comparable to control cells”. In addition, in the series on BMP, the “interaction with BMP-containing LUVs (BIAcore)” value was “dramatically decreased; also recorded: specifically abolished the interaction between rHsp70 and BMP”. Also, the “protection of cells against cisplatin-induced lysosomal cell death” value in series [3] is “completely lost its ability”. The “relative peak fluorescence intensity (tryptophan fluorescence shift)” value in the series with POPC/BMP liposomes is “reduction of the signal”. In series [4], the “luciferase folding and ATP hydrolysis” value was “capable of folding luciferase and hydrolyzing ATP”.

For the molecule “rHsp70-W580F: rHsp70 point mutant, tryptophan 580 substituted with phenylalanine”, in [1], the “protection of lysosomes” value is recorded as “same efficacy as the wild-type protein; also recorded: same protective effect as the wild-type protein”. Moreover, in the series on BMP, the “interaction with BMP-containing LUVs (BIAcore)” value is on record as “essentially the same interaction profile as rHsp70”. Further, in [3], the “protection of cells against cisplatin-induced lysosomal cell death” value was “same efficacy as the wild-type protein; also recorded: same protective effect as the wild-type protein”. The “relative peak fluorescence intensity (tryptophan fluorescence shift)” value in the series on POPC/BMP liposomes is reported as “unchanged signal”.

The record behind these values is patent US11938125B2, “Use of Hsp70 as a regulator of enzymatic activity” (Zevra Denmark A/S, priority 2008, dated 2024).
